One series deals with COS-7. Kind of series: [3H]ucb 30889 binding in cell types. The conditions noted are these: untransfected COS-7 cell line. On the procedure: (§1) To identify and characterize the LBS in situ, ^[3H]ucb 30889 was used to map the LBS within the brain and to study both its cellular and subcellular distribution. […] Binding assays with rat brain membranes and various neuronal cell lines were performed under similar conditions. […] For photolabeling, membranes were incubated with […] ^[3H]ucb 30889 for 120 min at 4° C. in the same buffer, followed by irradiation with UV-light for 30 min.
(§2) Abbreviation: nd, not detected.
In addition, a PC12 cell line subclone, PC12a, which is low in LBS, was used to establish a pool of PC12 cells expressing hSV2A under stable antibiotic selection.

Another series has as its system peripheral tissues. As to the kind of experiment: [3H]ucb 30889 specific binding in peripheral tissues. The conditions noted are these: 150 μg of protein/assay, 1.3 nM radioligand; limit of detection Bmax 200 fmol/mg protein. On the procedure:
The limit of detection under the experimental conditions (150 μg of protein/assay and 1.3 nM of radioligand) was a Bmax of 200 fmol/mg protein.

In a further series the test system is PC12. Kind of series: [3H]ucb 30889 binding in cell types. Also on record: species or system rat. The procedure:
as §1, §2

Series [1] has as its target T1, levetiracetam binding site (LBS) (Rattus norvegicus, UniProt Q02563). As to the kind of experiment: [3H]ucb 30889 binding on crude rat brain membranes (kinetics, saturation, competition).
The next series concerns the target T2, human SV2A (Homo sapiens, UniProt Q7L0J3).
T2 construct: expressed in transfected cells; host or cells: COS-7 cells, transient transfection (Lipofectamine 2000), vector pDEST 12.2
As to the kind of experiment: 3H-30889 intact cell binding to COS-7 cells transfected with SV2A. The conditions noted are these: displacement of 3H-30889, intact transfected COS-7 cells. From the text:
The human SV2A coding region was transferred from the pDONR GATEWAY cloning vector to a pDEST 12.2 Gateway expression vector. This vector has a CMV promoter driving the introduced gene, and an SV40 ori, which allows very high levels of replication in the COS-7 cell line, which contains the large T antigen. In addition, the human SV2A coding region was transferred into a pDEST 40 Gateway expression vector. This vector is very similar to the 12.2 vector above, with a CMV promoter driving expression of hSV2A, and an SV40 ori, and a Neomycin resistance gene.
Lipofectamine 2000 (Invitrogen) transfection reagent was used to transfect DNA into 90% confluent COS-7 cells. Also, the same reagent was used to transfect the hSV2A containing vector into the PC12a cell line, and selecting for antibiotic resistance. Anti-SV2 polyclonal antibody (CalBiochem) was used to test for expression in either transfected COS-7 cells, or transfected PC 12a cells, of the SV2A product. Lysates of the COS-7 cells were collected at 18 hrs after transfection on an SDS-PAGE gel, transferred to a membrane, and probed with a polyclonal antibody against SV2A, in comparison to crude rat brain membranes (FIG. 12A). Also shown are lysates from a non-transfected COS-7 cells, non-transfected PC12a cells (low in LBS), PC12bs cells (high in LBS), or PC 12a cells transfected with hSV2A (FIG. 12B). No labeling of protein bands is observed in the untransfected COS-7 control, while the transfected COS-7 cells show multiple bands, with most density in the range of 80–120 kD, perhaps due to multiple glycosylation states of the expressed protein. […]
In a binding experiment, specific binding was measured of ^3H-30889 to COS-7 cells that have either been transfected with SV2A-12.2, or as controls, a β-gal expressing vector, or cells that have not been transfected (FIG. 13). […] The cells were lysed on the plate, transferred to scintillation vials with scintillation fluid and counted for ^3H decay emission. […]
In general terms: In a radioligand displacement assay an active substance lowers the binding of a labelled ligand.

The test system of series [2] is peripheral tissues including heart, kidneys, spleen, pancreas, adrenals, lungs and liver. The conditions noted are these: radiolabel studies; cited from earlier work.
The conditions of series [3]: adjunctive therapy, adults; cited from earlier work.
Series [4] addresses T1, levetiracetam binding site (LBS). On the set-up: from tissue; host or cells: rat brain (crude membranes; 25 µm brain slices for autoradiography). The conditions noted are these: cited from earlier work.
The subject of series [5] is audiogenic-susceptible mouse. The conditions noted are these: cited from earlier work.

Molecules are shown by their SMILES. pKd, pKi: −log10 of the molar value.

T2 sequence (Q7L0J3 whole entry): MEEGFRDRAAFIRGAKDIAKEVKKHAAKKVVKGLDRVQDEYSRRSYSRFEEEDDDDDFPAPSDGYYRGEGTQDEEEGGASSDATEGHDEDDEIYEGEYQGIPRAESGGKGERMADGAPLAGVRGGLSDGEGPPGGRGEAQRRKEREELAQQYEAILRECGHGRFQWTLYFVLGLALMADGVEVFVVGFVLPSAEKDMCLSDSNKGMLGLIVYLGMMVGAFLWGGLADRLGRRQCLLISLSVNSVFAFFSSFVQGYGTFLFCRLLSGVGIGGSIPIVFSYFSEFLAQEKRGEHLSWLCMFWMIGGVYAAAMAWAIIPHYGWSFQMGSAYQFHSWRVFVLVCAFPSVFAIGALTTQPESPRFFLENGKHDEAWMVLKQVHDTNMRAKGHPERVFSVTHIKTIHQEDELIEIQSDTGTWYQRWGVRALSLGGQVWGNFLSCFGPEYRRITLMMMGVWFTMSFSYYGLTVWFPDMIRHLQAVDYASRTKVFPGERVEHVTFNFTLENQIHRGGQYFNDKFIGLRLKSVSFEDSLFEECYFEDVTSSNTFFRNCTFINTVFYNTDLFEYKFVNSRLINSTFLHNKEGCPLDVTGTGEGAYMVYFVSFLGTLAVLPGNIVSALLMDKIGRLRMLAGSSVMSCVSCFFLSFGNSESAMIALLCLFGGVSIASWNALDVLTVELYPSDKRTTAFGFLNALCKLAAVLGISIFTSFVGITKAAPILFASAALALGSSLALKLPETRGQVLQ
T1 sequence (Q02563 whole entry): as the sequence (Q7L0J3 whole entry) above, with D53E, S62A, T71A, E144D, A154T, G440S, S482A, I572V, M634L counted along it

As a reminder, the pKd is the negative decadic logarithm of the Kd, by convention in mol/L. High values mean a low Kd, low ones a high Kd. The term pKi denotes the Ki on a negative log10 scale, so that one unit is a factor of ten. Higher therefore signals a low Ki. `CC[C@@H](C(N)=O)N1CC(c2cccc(N=[N+]=[N-])c2)CC1=O` (stereo partly shown) [ucb 30889]: the binding entry in the series with COS-7 is reported as “no binding above background”. Besides, the specific binding entry in the series on peripheral tissues is “could not be detected”. In the series on PC12, this compound had a Bmax of 79000 sites/cell and a pKd of 7.30. Also, in series [1], the pKd is 7.38 and the pKi was 7.10. On human SV2A, the “IC50 against SV2A expressed in COS-7 cells (rank order)” value (shortened to “IC50 against SV2A expressed”) is recorded as “same rank order as seen in studies of LBS in rat brain”.
In the case of `CC[C@@H](C(N)=O)N1CCCC1=O` [levetiracetam, (S)-α-ethyl-2-oxo-1-pyrrolidine acetamide], the specific binding result in series [2] was “no specific binding”. Also, in [3], the “efficacy in controlling refractory partial seizures” value was “effective” and the tolerability result is “well tolerated”. In [4] (rat hippocampal membranes), the affinity entry is “modest affinity” and the binding capacity result is given as “high binding capacity”. The “IC50 against SV2A expressed” value on human SV2A is given as “same rank order as seen in studies of LBS in rat brain”. In addition, the suppression of seizures entry in series [5] is “unexpected potent ability”.
On to `CC[C@H](C(N)=O)N1CCCC1=O` [ucb L060], for which, in series [4] (rat brain membranes), the “times less affinity for the LBS than levetiracetam” value is “about 1000 times”. Also, the “IC50 against SV2A expressed” value at human SV2A is “same rank order as seen in studies of LBS in rat brain”.
